Numbers after ± are expanded uncertainties.
Test: xn = mol fraction of the nth substance listed
Conditions: Vibrating tube method, x2 = 0.9503

O=S=O [sulfur dioxide] + O=C=O
Conditions | mass density [kg/m3]
322.49 K, 26001 kPa, Fluid (supercritical or subcritical phases) | 875.4 ± 0.8
322.49 K, 26517 kPa, Fluid (supercritical or subcritical phases) | 878.8 ± 0.8
322.49 K, 27508 kPa, Fluid (supercritical or subcritical phases) | 886.3 ± 0.8
322.49 K, 28018 kPa, Fluid (supercritical or subcritical phases) | 889.5 ± 0.8
322.49 K, 29025 kPa, Fluid (supercritical or subcritical phases) | 896.4 ± 0.7
322.49 K, 29507 kPa, Fluid (supercritical or subcritical phases) | 899.6 ± 0.7
322.5 K, 17499 kPa, Fluid (supercritical or subcritical phases) | 793.5 ± 1.3
322.5 K, 18503 kPa, Fluid (supercritical or subcritical phases) | 806.6 ± 1.3
322.5 K, 19491 kPa, Fluid (supercritical or subcritical phases) | 818.5 ± 1.1
322.5 K, 24497 kPa, Fluid (supercritical or subcritical phases) | 864.4 ± 0.9
322.5 K, 25003 kPa, Fluid (supercritical or subcritical phases) | 867.7 ± 0.8
322.51 K, 11504 kPa, Fluid (supercritical or subcritical phases) | 649.9 ± 3.5
322.51 K, 12003 kPa, Fluid (supercritical or subcritical phases) | 672.3 ± 2.9
322.51 K, 16502 kPa, Fluid (supercritical or subcritical phases) | 779.1 ± 1.5
322.51 K, 17005 kPa, Fluid (supercritical or subcritical phases) | 786.2 ± 1.3
322.52 K, 14000 kPa, Fluid (supercritical or subcritical phases) | 731.9 ± 1.9
322.52 K, 14504 kPa, Fluid (supercritical or subcritical phases) | 742.9 ± 1.7
322.52 K, 15012 kPa, Fluid (supercritical or subcritical phases) | 753.2 ± 1.7
322.52 K, 15501 kPa, Fluid (supercritical or subcritical phases) | 761.8 ± 1.5
322.52 K, 16003 kPa, Fluid (supercritical or subcritical phases) | 770.9 ± 1.5
322.53 K, 12505 kPa, Fluid (supercritical or subcritical phases) | 691.1 ± 2.5
322.53 K, 13501 kPa, Fluid (supercritical or subcritical phases) | 720.4 ± 2.1
322.54 K, 13000 kPa, Fluid (supercritical or subcritical phases) | 706.7 ± 2.3
352.93 K, 202 kPa, Gas | 3 ± 0.2
352.93 K, 6001 kPa, Gas | 114.8 ± 0.4
352.94 K, 1742 kPa, Gas | 28.6 ± 0.2
352.94 K, 2504 kPa, Gas | 41.8 ± 0.2
352.94 K, 4003 kPa, Gas | 70.6 ± 0.2
352.94 K, 4493 kPa, Gas | 80.5 ± 0.2
352.94 K, 6516 kPa, Gas | 127.7 ± 0.4
352.94 K, 7017 kPa, Gas | 140.9 ± 0.4
352.94 K, 7498 kPa, Fluid (supercritical or subcritical phases) | 154.1 ± 0.5
352.94 K, 8038 kPa, Fluid (supercritical or subcritical phases) | 170.3 ± 0.5
352.94 K, 9008 kPa, Fluid (supercritical or subcritical phases) | 201.9 ± 0.7
352.95 K, 306 kPa, Gas | 4.6 ± 0.2
352.95 K, 402 kPa, Gas | 6 ± 0.2
352.95 K, 511 kPa, Gas | 7.6 ± 0.2
352.95 K, 740 kPa, Gas | 11.4 ± 0.2
352.95 K, 1507 kPa, Gas | 24.3 ± 0.2
352.95 K, 2002 kPa, Gas | 33 ± 0.2
352.95 K, 2248 kPa, Gas | 37 ± 0.2
352.95 K, 2800 kPa, Gas | 47.2 ± 0.2
352.95 K, 3009 kPa, Gas | 51 ± 0.2
352.95 K, 4997 kPa, Gas | 91.5 ± 0.2
352.95 K, 5490 kPa, Gas | 102.6 ± 0.4
352.95 K, 9230 kPa, Fluid (supercritical or subcritical phases) | 209.5 ± 0.7
352.95 K, 12000 kPa, Fluid (supercritical or subcritical phases) | 321.9 ± 2.7
352.95 K, 12505 kPa, Fluid (supercritical or subcritical phases) | 346.8 ± 2.9
352.95 K, 14502 kPa, Fluid (supercritical or subcritical phases) | 447.3 ± 2.9
352.95 K, 15497 kPa, Fluid (supercritical or subcritical phases) | 493.2 ± 2.7
352.95 K, 16515 kPa, Fluid (supercritical or subcritical phases) | 535.1 ± 2.5
352.95 K, 17520 kPa, Fluid (supercritical or subcritical phases) | 569.4 ± 2.1
352.95 K, 19511 kPa, Fluid (supercritical or subcritical phases) | 624.5 ± 1.7
352.95 K, 21993 kPa, Fluid (supercritical or subcritical phases) | 677.2 ± 1.5
352.95 K, 22493 kPa, Fluid (supercritical or subcritical phases) | 686.4 ± 1.3
352.95 K, 23011 kPa, Fluid (supercritical or subcritical phases) | 694.8 ± 1.3
352.95 K, 24538 kPa, Fluid (supercritical or subcritical phases) | 717.4 ± 1.3
352.95 K, 25002 kPa, Fluid (supercritical or subcritical phases) | 723.7 ± 1.1
352.95 K, 31494 kPa, Fluid (supercritical or subcritical phases) | 793.2 ± 0.9
352.96 K, 982 kPa, Gas | 15.1 ± 0.2
352.96 K, 1248 kPa, Gas | 19.9 ± 0.2
352.96 K, 3495 kPa, Gas | 60.3 ± 0.2
352.96 K, 8507 kPa, Fluid (supercritical or subcritical phases) | 185.5 ± 0.5
352.96 K, 10075 kPa, Fluid (supercritical or subcritical phases) | 238.1 ± 2.1
352.96 K, 11001 kPa, Fluid (supercritical or subcritical phases) | 276.4 ± 2.3
352.96 K, 12998 kPa, Fluid (supercritical or subcritical phases) | 371.8 ± 2.9
352.96 K, 13501 kPa, Fluid (supercritical or subcritical phases) | 397.6 ± 2.9
352.96 K, 14004 kPa, Fluid (supercritical or subcritical phases) | 422.3 ± 2.9
352.96 K, 15003 kPa, Fluid (supercritical or subcritical phases) | 470.1 ± 2.9
352.96 K, 16004 kPa, Fluid (supercritical or subcritical phases) | 514.7 ± 2.5
352.96 K, 17006 kPa, Fluid (supercritical or subcritical phases) | 552.6 ± 2.3
352.96 K, 19011 kPa, Fluid (supercritical or subcritical phases) | 611.7 ± 1.9
352.96 K, 20014 kPa, Fluid (supercritical or subcritical phases) | 636.9 ± 1.7
352.96 K, 20490 kPa, Fluid (supercritical or subcritical phases) | 647.4 ± 1.7
352.96 K, 20999 kPa, Fluid (supercritical or subcritical phases) | 657.9 ± 1.5
352.96 K, 21521 kPa, Fluid (supercritical or subcritical phases) | 668.5 ± 1.5
352.96 K, 23524 kPa, Fluid (supercritical or subcritical phases) | 703.1 ± 1.3
352.96 K, 24023 kPa, Fluid (supercritical or subcritical phases) | 710.4 ± 1.3
352.96 K, 25555 kPa, Fluid (supercritical or subcritical phases) | 731.2 ± 1.1
352.96 K, 26036 kPa, Fluid (supercritical or subcritical phases) | 736.4 ± 1.1
352.96 K, 27501 kPa, Fluid (supercritical or subcritical phases) | 752.6 ± 1.1
352.96 K, 28006 kPa, Fluid (supercritical or subcritical phases) | 758.3 ± 1.1
352.96 K, 28507 kPa, Fluid (supercritical or subcritical phases) | 764.2 ± 1.1
352.96 K, 29492 kPa, Fluid (supercritical or subcritical phases) | 773.9 ± 0.9
352.96 K, 29991 kPa, Fluid (supercritical or subcritical phases) | 779 ± 0.9
352.96 K, 31058 kPa, Fluid (supercritical or subcritical phases) | 789.4 ± 0.9
352.96 K, 31993 kPa, Fluid (supercritical or subcritical phases) | 797.6 ± 0.9
352.96 K, 33014 kPa, Fluid (supercritical or subcritical phases) | 805.8 ± 0.9
352.96 K, 33519 kPa, Fluid (supercritical or subcritical phases) | 809.8 ± 0.9
352.96 K, 36996 kPa, Fluid (supercritical or subcritical phases) | 835.2 ± 0.7
352.97 K, 10506 kPa, Fluid (supercritical or subcritical phases) | 255.3 ± 2.1
352.97 K, 11505 kPa, Fluid (supercritical or subcritical phases) | 298.8 ± 2.5
352.97 K, 18007 kPa, Fluid (supercritical or subcritical phases) | 583.3 ± 2.1
352.97 K, 18500 kPa, Fluid (supercritical or subcritical phases) | 597.8 ± 1.9
352.97 K, 26597 kPa, Fluid (supercritical or subcritical phases) | 742.8 ± 1.1
352.97 K, 29001 kPa, Fluid (supercritical or subcritical phases) | 768.7 ± 0.9
352.97 K, 30512 kPa, Fluid (supercritical or subcritical phases) | 784.7 ± 0.9
352.97 K, 32552 kPa, Fluid (supercritical or subcritical phases) | 802.4 ± 0.9
352.97 K, 34055 kPa, Fluid (supercritical or subcritical phases) | 814.5 ± 0.9
352.97 K, 35014 kPa, Fluid (supercritical or subcritical phases) | 821.4 ± 0.9
352.97 K, 35510 kPa, Fluid (supercritical or subcritical phases) | 824.7 ± 0.7
352.97 K, 36496 kPa, Fluid (supercritical or subcritical phases) | 831.8 ± 0.7
352.97 K, 37499 kPa, Fluid (supercritical or subcritical phases) | 838.7 ± 0.7
352.97 K, 38520 kPa, Fluid (supercritical or subcritical phases) | 845.7 ± 0.7
352.97 K, 39009 kPa, Fluid (supercritical or subcritical phases) | 848.1 ± 0.7
352.98 K, 27043 kPa, Fluid (supercritical or subcritical phases) | 747.4 ± 1.1
352.98 K, 34563 kPa, Fluid (supercritical or subcritical phases) | 818.1 ± 0.9
352.98 K, 36013 kPa, Fluid (supercritical or subcritical phases) | 828.1 ± 0.7
352.98 K, 38023 kPa, Fluid (supercritical or subcritical phases) | 842.1 ± 0.7
352.98 K, 39300 kPa, Fluid (supercritical or subcritical phases) | 850.2 ± 0.7
352.98 K, 39330 kPa, Fluid (supercritical or subcritical phases) | 850.5 ± 0.7

From the NIST ThermoML archive (doi:10.1016/j.fluid.2017.09.014)
